{"source": "patent US20060235062A1", "about": "“Novel heterocyclic analogs of diphenylethylene compounds” (THERACOS, INC., priority 2002, published 2006)", "key": {"TNF-alpha": {"system": "TNF-alpha", "assay": "LPS-induced TNF-alpha production in RAW cells (ELISA)", "type": "cell-based", "conditions": "RAW cells, 0.1, 1, 10, 50 or 100 pM, 1 hour preincubation, LPS 6 hours, FIG. 9"}, "IL-1-beta": {"system": "IL-1-beta", "assay": "LPS-induced IL-1-beta production in RAW cells (ELISA)", "type": "cell-based", "conditions": "RAW cells, 0.1, 1, 10, 50 or 100 pM, FIG. 11"}, "IkappaB": {"system": "IkappaB", "assay": "LPS-stimulated phosphorylation of IkappaB in RAW 264.7 cells", "type": "cell-based", "conditions": "RAW 264.7 cells, 3, 10 or 30, LPS plus IFN-gamma, anti-phospho-IkappaB blot"}, "HepG2 cells": {"system": "HepG2 cells", "assay": "Glycogen synthesis in HepG2 cells", "type": "cell-based", "conditions": "HepG2, absence of insulin"}, "PPAR-gamma": {"molecular_target": "T1, PPAR-gamma (Homo sapiens, UniProt P37231)", "T1 sequence (P37231 1-505)": "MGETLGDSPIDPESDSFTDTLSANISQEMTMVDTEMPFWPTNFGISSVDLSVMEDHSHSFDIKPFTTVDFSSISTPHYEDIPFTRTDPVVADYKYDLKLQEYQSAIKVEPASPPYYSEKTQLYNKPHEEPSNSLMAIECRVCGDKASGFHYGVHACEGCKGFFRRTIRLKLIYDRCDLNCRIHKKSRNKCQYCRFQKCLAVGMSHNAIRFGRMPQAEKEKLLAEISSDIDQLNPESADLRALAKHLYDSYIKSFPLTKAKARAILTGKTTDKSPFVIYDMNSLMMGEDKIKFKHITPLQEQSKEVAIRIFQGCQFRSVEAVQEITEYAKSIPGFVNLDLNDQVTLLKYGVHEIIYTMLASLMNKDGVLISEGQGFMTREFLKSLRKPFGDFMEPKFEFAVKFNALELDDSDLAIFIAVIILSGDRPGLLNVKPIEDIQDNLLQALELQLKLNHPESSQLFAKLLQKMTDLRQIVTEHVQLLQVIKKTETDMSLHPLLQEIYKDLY", "assay": "Preliminary PPAR-gamma competition binding assays", "conditions": "data not shown"}}}
{"smiles": "COC(=O)C(=Cc1cc(OC)cc(OC)c1)c1ccc(Oc2ccc(CC3SC(=O)NC3=O)cc2)cc1", "note": "(stereo not drawn) [Compound 11, 3-(3,5-Dimethoxyphenyl)-2-{4-[4-(2,4-dioxothiazolidin-5-ylmethyl)-phenoxy]-phenyl}-acrylic acid methyl ester]", "values": [{"measurement": "inhibition of LPS-induced TNF-alpha production", "setting": "TNF-alpha", "value": "better inhibitor of TNF-alpha than rosiglitazone"}, {"measurement": "inhibition of LPS-induced IL-1-beta production", "setting": "IL-1-beta", "value": "inhibited IL-1-beta better than rosiglitazone"}, {"measurement": "inhibition of the phosphorylation of IkappaB", "setting": "IkappaB", "value": "dose-dependent inhibition"}, {"measurement": "14C-glucose incorporated into glycogen, dose response", "setting": "HepG2 cells; FIG. 25A", "value": "dose-dependent increase"}, {"measurement": "maximal increase in glycogen synthesis over baseline", "setting": "HepG2 cells; at 48 to 72 h, FIG. 25B", "value": 3.1, "unit": "fold"}, {"measurement": "affinity (Ki) of PPAR-gamma, less than for rosiglitazone", "setting": "PPAR-gamma", "value": 6.5, "unit": "fold"}]}
